Like-named read-outs stand apart in the source and are kept apart here.
What was measured:
[1] = target: VSV RdRp complex (L and P proteins on N–RNA) (Vesicular stomatitis Indiana virus, UniProt P03523); assay type: biochemical
[2] = test system: VSV; test: microbe, parasite or virus in culture; assay type: cell-based; settings: Vesicular stomatitis virus, BHK-21, in Mesocricetus auratus, 24 h, read-out: % Inhibition Metabolic Shut-down (CCK Assay)
[3] = test system: VSV; test: microbe, parasite or virus in culture; assay type: cell-based; settings: Vesicular stomatitis virus, BHK-21, in Mesocricetus auratus, 24 h, read-out: % Inhibition Nuclear Condensation (Cell Imaging)
[4] = target: VSV RNP (Vesicular stomatitis Indiana virus, UniProt P03523); test: biochemical; assay type: biochemical; settings: for inhibition at 20 µM: read-out: % Inhibition mRNA Synthesis (In vitro Transcription)
Chain of VSV RNP (P03523 whole entry, looked up): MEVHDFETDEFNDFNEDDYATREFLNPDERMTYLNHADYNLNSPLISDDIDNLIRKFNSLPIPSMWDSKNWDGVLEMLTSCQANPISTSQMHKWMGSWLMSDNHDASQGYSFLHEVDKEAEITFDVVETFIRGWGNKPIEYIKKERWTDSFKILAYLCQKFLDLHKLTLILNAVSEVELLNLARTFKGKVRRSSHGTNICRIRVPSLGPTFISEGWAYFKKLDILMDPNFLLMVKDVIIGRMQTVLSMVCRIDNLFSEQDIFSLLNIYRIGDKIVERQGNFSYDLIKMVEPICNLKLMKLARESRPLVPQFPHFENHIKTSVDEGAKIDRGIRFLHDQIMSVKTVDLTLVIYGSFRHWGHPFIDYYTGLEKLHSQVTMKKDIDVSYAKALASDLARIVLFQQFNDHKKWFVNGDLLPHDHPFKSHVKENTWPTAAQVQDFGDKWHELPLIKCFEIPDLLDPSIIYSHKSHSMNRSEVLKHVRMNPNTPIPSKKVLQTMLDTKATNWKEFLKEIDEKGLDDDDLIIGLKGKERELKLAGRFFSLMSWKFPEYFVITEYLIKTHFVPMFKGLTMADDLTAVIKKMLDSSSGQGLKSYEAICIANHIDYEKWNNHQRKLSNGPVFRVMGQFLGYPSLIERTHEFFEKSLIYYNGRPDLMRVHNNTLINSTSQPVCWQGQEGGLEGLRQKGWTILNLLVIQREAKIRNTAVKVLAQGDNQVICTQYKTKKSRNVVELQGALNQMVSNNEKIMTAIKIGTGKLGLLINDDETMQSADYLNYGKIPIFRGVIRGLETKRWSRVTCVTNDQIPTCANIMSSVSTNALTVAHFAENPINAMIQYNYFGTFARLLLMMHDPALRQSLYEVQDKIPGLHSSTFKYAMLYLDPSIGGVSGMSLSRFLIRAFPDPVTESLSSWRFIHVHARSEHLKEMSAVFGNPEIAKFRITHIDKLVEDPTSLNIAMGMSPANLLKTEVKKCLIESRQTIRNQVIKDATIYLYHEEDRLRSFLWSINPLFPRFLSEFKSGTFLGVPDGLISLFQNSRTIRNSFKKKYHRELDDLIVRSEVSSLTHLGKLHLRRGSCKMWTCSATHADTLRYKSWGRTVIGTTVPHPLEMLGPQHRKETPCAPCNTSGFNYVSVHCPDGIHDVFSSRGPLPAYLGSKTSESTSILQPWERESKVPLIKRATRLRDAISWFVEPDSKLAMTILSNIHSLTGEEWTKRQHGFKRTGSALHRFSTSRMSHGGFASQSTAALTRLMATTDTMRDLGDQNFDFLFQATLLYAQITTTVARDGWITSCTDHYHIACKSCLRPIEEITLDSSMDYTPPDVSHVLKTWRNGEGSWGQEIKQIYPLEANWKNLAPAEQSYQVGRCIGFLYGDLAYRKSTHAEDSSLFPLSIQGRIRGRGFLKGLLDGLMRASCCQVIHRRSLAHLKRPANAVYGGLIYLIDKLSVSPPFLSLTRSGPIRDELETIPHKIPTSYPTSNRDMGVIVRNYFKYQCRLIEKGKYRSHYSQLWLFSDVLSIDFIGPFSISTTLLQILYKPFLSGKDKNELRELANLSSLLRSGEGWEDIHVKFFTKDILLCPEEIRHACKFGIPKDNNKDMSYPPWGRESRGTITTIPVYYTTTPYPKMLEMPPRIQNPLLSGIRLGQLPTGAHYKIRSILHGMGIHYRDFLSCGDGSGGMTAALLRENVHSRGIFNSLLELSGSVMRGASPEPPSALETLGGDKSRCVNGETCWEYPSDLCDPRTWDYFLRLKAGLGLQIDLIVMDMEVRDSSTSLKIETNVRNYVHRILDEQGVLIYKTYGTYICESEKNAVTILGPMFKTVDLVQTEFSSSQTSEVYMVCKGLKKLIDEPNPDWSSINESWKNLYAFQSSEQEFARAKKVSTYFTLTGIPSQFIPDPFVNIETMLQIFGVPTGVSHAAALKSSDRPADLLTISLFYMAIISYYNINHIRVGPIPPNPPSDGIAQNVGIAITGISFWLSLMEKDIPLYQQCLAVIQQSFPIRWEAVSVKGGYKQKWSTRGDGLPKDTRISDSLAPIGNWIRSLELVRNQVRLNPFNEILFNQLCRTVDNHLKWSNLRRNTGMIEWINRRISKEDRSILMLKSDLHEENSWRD

[5] = target: CHPV RNP (Chandipura virus, UniProt P13179); test: biochemical
[6] = target: HPIV-3 RNP (Human parainfluenza 3 virus, UniProt P12577); assay type: biochemical, Human parainfluenza virus 3; settings: at 10 µM
[7] = target: VSV L protein (Vesicular stomatitis Indiana virus, UniProt P03523); test: biochemical; assay type: biochemical
Chain of VSV L protein (P03523 whole entry, looked up): as above

[8] = target: CHPV RdRp (L and P proteins) (Chandipura virus, UniProt P13179); test: biochemical; settings: read-out: inhibition of CHPV AC synthesis
[9] = target: VSV L protein (PRNTase domain) (Vesicular stomatitis Indiana virus, UniProt P03523); assay type: biochemical; settings: at 10 µM
[10] = test system: VSV; assay type: cell-based, Vesicular stomatitis virus in BHK-21 cells (hamster)
[11] = test system: VSV-AcGFP; assay type: cell-based, Vesicular stomatitis virus in BHK-21 cells (hamster); settings: 10 µM
[12] = test system: VSV-AcGFP; assay type: cell-based, Vesicular stomatitis virus in BHK-21 cells (hamster); settings: 10 µM; remark: listed apart in the source
[13] = test system: BHK-21 cells; settings: at 100 µM
[14] = test system: CHPV
[15] = test system: HeLa cells
[16] = test system: VSV
[17] = test system: RABV
[18] = test system: NA cells
[19] = test system: HPIV-3
[20] = test system: HeLa cells; remark: listed apart in the source
[21] = in vitro; settings: hamster
[22] = in vitro; settings: human
[23] = test system: VSV; test: microbe, parasite or virus in culture; settings: Vesicular stomatitis virus, BHK-21, in Mesocricetus auratus, 24 h, read-out: Anti-VSV Activity IC50 (VSV-induced metabolic shut-down)
[24] = test system: CHPV; test: microbe, parasite or virus in culture; settings: Chandipura virus, BHK-21, in Mesocricetus auratus, 24 h, read-out: Anti-CHPV Activity IC50 (CHPV-induced metabolic shut-down)
[25] = test system: VSV; test: microbe, parasite or virus in culture; settings: Vesicular stomatitis virus, HeLa, in Homo sapiens, 65 h, read-out: Anti-VSV Activity IC50 (VSV-induced metabolic shut-down)
[26] = test system: RABV; test: microbe, parasite or virus in culture; settings: Lyssavirus rabies, in mouse/rat NG108-15, 48 h, read-out: Anti-RABV activity IC50 (RABV gene expression, luciferase)
[27] = test system: HPIV-3; test: microbe, parasite or virus in culture; settings: Human respirovirus 3, HeLa, 72 h, read-out: Anti-HPIV-3 activity IC50

In the case of O=C(O)CN(CCN(CC(=O)O)CC(=O)O)CC(=O)O [EDTA, reference compound], the “synthesis of LeRNA1–18 (pulse)” value [1] is reported as “abolishes”.

Work on COc1ccc(C2CC(=O)Nc3cc(O)c(C)cc32)cc1Cn1cccn1 (stereo not shown) [VPI A] yielded an inhibition at 17 µM [2] of 105%, an inhibition at 17 µM [3] of 98% and an IC50 [4] of 0.81 ± 0.04 µM. For the same compound, the “VSV LeRNA synthesis” value [4] was “represses”, the inhibition at 20 µM [4] was 99% and the IC50 [5] was 3.3 ± 0.4 µM. For the same compound, the “inhibition of in vitro mRNA synthesis of HPIV-3” value [6] was “not”, the “AC synthesis with the VSV L and P proteins” value [7] was “inhibit” and the inhibition at 1 µM ([7]; 1 µM, read-out: inhibition of AC synthesis with the VSV L protein alone) was 85%. For the same compound, the “AC synthesis with the VSV L and P proteins (Figure S4)” value ([7]; 10 µM) was “strongest”, the inhibition at 10 µM ([7]; 10 µM, read-out: inhibition of AC synthesis with the VSV L protein alone) was 100% and the inhibition at 1 µM ([8]; 1 µM) was 77%. The inhibition at 10 µM ([8]; 10 µM) was 97%, the “capping activity of the PRNTase domain in the VSV L protein” value [9] was “slightly reduced” and the “concentration that almost completely abolished VSV production” value [10] was at least 12.5 µM. For the same compound, the “nuclear condensation and AcGFP expression in infected cells” value [11] was “abrogate”, the “synthesis of LeRNA1–18 (pulse)” value [1] was “inhibits” and the “step of VSV infection inhibited (time-of-addition)” value [12] was “inhibits VSV infection at an early post-entry step”. The “cytotoxic effects on BHK-21 cells” value [13] was “little or no cytotoxic effects”, the “Anti-CHPV Activity SI (CC50/IC50)” value [14] was over 13 and the IC50 ([14]; read-out: Anti-CHPV Activity IC50 (CHPV-induced metabolic shut-down)) was 7.9 ± 0.4 µM. The “toxicity to HeLa cells” value [15] was “less toxic”, the “VSV-induced cell rounding and detachment” value [16] was “inhibited” and the IC50 ([16]; read-out: Anti-VSV Activity IC50 (VSV-induced metabolic shut-down)) was 0.42 ± 0.02 µM. The “Anti-RABV activity SI (CC50/IC50)” value [17] was over 4, the “Cytotoxicity CC50” value [18] was > 1 0 0 µM and the “antiviral effects against HPIV-3” value [19] was “neither of the compounds showed any antiviral effects”. For the same compound, the “Cytotoxicity CC50” value [20] was > 1 0 0 µM, the CC50 [21] was over 100 µM and the CC50 [22] was over 100 µM. For the same compound, the IC50 [23] was 2 ± 0.1 µM, the IC50 [24] was 8 µM and the IC50 [25] was 0.4 µM. It also gave an IC50 [26] of 26 µM.

COc1cc2c(cc1C1CC(=O)Nc3cc(O)c(C)cc31)CCC2 (stereo not shown) [VPI E] gave an inhibition at 17 µM [2] of 50%, an inhibition at 17 µM [3] of 94% and an inhibition at 20 µM [4] of 72%.

For Cc1cc2c(cc1O)NC(=O)CC2c1cc2ccccc2n1C (stereo not shown) [VPI D], the inhibition at 17 µM [2] was 55%, the inhibition at 17 µM [3] was 57% and the inhibition at 20 µM [4] was 72%.

In the case of Cc1cc2c(cc1O)NC(=O)CC2c1c[nH]nc1-c1ccc(F)cc1 (stereo not shown) [VPI C], the inhibition at 17 µM [2] is reported as 58%, the inhibition at 17 µM [3] is reported as 63% and the inhibition at 20 µM [4] is reported as 72%.

With Cc1cc2c(cc1O)NC(=O)CC2c1ccc(-c2cc[nH]n2)o1 (stereo not shown) [VPI F] the inhibition at 17 µM [2] was 48%, the inhibition at 17 µM [3] was 69% and the “effect on VSV mRNA synthesis, in words” value ([4]; at 20 µM) was “weak inhibitory effect”. For the same compound, the inhibition at 20 µM [4] was 34% and the “AC synthesis with the VSV L and P proteins (Figure S4)” value ([7]; 10 µM) was “weakest”.

COc1cc2c(cc1C1CC(=O)Nc3cc(O)c(C)cc31)OCCCO2 (stereo not shown) [VPI H] showed an inhibition at 17 µM [2] of 34%, an inhibition at 17 µM [3] of 53% and an inhibition at 20 µM [4] of 73%.

In the case of Cc1cc2c(cc1O)NC(=O)CC2c1cc(C(C)(C)C)[nH]n1 (stereo not shown) [VPI B], the inhibition at 17 µM [2] is reported as 102%, the inhibition at 17 µM [3] is reported as 92% and the inhibition at 20 µM [4] is reported as 89%. For the same compound, the “concentration that almost completely abolished VSV production” value [10] was at least 25 µM, the “nuclear condensation and AcGFP expression in infected cells” value [11] was “abrogate” and the “cytotoxic effects on BHK-21 cells” value [13] was “little or no cytotoxic effects”. For the same compound, the “Anti-CHPV Activity SI (CC50/IC50)” value [14] was over 9, the “toxicity to HeLa cells” value [15] was “less toxic” and the “VSV-induced cell rounding and detachment” value [16] was “inhibited”. The “inhibitory effect on RABV gene expression” value [17] was “little or no inhibitory effect”, the “Cytotoxicity CC50” value [18] was > 1 0 0 µM and the “antiviral effects against HPIV-3” value [19] was “neither of the compounds showed any antiviral effects”. For the same compound, the “Cytotoxicity CC50” value [20] was > 1 0 0 µM, the CC50 [21] was over 100 µM and the CC50 [22] was over 100 µM. For the same compound, the IC50 [23] was 6 µM, the IC50 [24] was 11 ± 1 µM and the IC50 [25] was 1 µM.

For NC(=O)c1ncn([C@@H]2O[C@H](CO)[C@@H](O)[C@H]2O)n1 [Ribavirin, reference compound], the “Anti-CHPV Activity SI (CC50/IC50)” value [14] was under 1, the “Anti-HPIV-3 activity SI (CC50/IC50)” value [19] was over 5 and the “Cytotoxicity CC50” value [20] was > 1 0 0 µM. It also gave a CC50 [21] of 86 ± 0.5 µM, a CC50 [22] of over 100 µM and an IC50 [23] of over 100 µM. For the same compound, the IC50 [24] was over 100 µM, the IC50 [25] was 15 ± 1 µM and the IC50 [27] was 21 µM.

Compound Cc1cc2c(cc1O)NC(=O)CC2c1ccc(Oc2ccccc2)cc1 (stereo not shown) [VPI G] has an inhibition at 17 µM [2] of 46%, an inhibition at 17 µM [3] of 54% and an inhibition at 20 µM [4] of 68%.

Reference: article PMC6783830 (Viruses, 2019)
